ChEMBL document CHEMBL1146651, “Selective urokinase-type plasminogen activator (uPA) inhibitors. Part 3: 1-isoquinolinylguanidines” (Bioorg Med Chem Lett, 2004)

Assays:
[1] = target: Urokinase-type plasminogen activator (Homo sapiens, UniProt P00749)
Plasminogen [2] = target: T1, Plasminogen (Homo sapiens, UniProt P00747); assay: Inhibitory activity against human plasmin was evaluated using chromozym-PL as substrate at 100 mM
[3] = target: T2, Tissue-type plasminogen activator (Homo sapiens, UniProt P00750); assay: Inhibitory activity against human tissue type plasminogen activator was evaluated using S-2444 as substrate and tissue plasminogen activator stimulator at […]
Target sequence in this assay (P00750 36-562 limits assumed): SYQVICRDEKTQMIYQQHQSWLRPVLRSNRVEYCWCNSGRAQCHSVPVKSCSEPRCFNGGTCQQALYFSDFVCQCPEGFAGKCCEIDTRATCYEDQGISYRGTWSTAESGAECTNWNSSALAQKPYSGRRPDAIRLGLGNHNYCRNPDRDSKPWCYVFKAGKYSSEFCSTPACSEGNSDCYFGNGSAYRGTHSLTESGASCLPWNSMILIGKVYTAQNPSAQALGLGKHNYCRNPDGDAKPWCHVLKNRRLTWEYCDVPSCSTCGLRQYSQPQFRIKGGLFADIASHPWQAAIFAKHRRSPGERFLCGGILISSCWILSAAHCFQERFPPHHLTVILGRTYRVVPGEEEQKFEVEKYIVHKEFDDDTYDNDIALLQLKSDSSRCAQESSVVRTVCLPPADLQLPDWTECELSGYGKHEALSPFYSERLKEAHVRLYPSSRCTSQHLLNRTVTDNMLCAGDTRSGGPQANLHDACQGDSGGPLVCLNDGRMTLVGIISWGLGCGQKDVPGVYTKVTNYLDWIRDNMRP

Plasminogen [4] = target: T1, Plasminogen; assay: Inhibition of human plasmin activity with chromozym-PL as substrate
[5] = target: T2, Tissue-type plasminogen activator; assay: Inhibitory activity against human tissue plasminogen activator was evaluated using S-2444 as substrate and tissue plasminogen activator stimulator at 1 mM
Target sequence in this assay (P00750 36-562 limits assumed): as above

Plasminogen [6] = target: T1, Plasminogen; assay: Inhibitory activity of 30 uM compound against plasmin was evaluated using chromozym-PL as substrate
Plasminogen [7] = target: T1, Plasminogen; assay: (§1) Inhibitory activity against human plasmin was evaluated using chromozym-PL as substrate at 1 mM
[8] = target: T2, Tissue-type plasminogen activator; assay: Inhibitory activity against human tissue plasminogen activator was evaluated using S-2444 as substrate and tissue plasminogen activator stimulator at 30 uM
Target sequence in this assay (P00750 36-562 limits assumed): as above

[9] = target: T2, Tissue-type plasminogen activator; assay: Inhibitory activity against human tissue type plasminogen activator using S-2444
Target sequence in this assay (P00750 whole entry): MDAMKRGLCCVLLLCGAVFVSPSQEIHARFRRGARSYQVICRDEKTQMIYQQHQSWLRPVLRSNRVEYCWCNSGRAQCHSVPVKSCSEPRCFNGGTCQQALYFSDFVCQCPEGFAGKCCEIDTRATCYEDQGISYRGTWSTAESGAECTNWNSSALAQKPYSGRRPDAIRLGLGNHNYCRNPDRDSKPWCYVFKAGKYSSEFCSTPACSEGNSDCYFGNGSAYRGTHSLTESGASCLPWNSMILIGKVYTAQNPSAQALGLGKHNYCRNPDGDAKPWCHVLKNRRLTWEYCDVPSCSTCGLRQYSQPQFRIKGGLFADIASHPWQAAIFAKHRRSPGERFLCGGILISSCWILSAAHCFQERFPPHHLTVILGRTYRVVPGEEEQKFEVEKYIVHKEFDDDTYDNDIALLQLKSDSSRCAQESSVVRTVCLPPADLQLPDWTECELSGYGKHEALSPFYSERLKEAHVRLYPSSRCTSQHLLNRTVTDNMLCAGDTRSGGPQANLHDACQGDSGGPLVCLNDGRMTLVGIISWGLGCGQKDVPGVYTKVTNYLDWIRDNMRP

Plasminogen [10] = target: T1, Plasminogen; assay: Inhibitory activity of 3 uM compound against plasmin was evaluated using chromozym-PL as substrate
Plasminogen [11] = target: T1, Plasminogen; assay: as §1; remark: listed apart in the source
Plasminogen [12] = target: T1, Plasminogen; assay: Inhibitory activity against human plasmin was evaluated using chromozym-PL as substrate at 10 uM
Plasminogen [13] = target: T1, Plasminogen; assay: Inhibitory activity against human plasmin was evaluated using chromozym-PL as substrate at 300 mM

T1 sequence (P00747 97-580 limits assumed): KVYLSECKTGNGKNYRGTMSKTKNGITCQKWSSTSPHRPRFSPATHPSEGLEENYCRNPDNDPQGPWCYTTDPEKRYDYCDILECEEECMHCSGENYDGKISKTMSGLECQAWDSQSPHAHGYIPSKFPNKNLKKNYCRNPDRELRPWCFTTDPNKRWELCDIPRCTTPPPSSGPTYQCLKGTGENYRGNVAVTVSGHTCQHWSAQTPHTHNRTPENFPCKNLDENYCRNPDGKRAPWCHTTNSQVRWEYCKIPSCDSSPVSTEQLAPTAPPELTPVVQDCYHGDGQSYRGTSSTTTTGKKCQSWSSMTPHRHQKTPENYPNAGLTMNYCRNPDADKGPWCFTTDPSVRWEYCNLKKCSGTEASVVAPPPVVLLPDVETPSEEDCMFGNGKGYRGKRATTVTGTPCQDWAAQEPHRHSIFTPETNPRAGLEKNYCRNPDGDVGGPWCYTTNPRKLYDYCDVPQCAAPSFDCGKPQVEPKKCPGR
T1 sequence (P00747 581-810 limits assumed): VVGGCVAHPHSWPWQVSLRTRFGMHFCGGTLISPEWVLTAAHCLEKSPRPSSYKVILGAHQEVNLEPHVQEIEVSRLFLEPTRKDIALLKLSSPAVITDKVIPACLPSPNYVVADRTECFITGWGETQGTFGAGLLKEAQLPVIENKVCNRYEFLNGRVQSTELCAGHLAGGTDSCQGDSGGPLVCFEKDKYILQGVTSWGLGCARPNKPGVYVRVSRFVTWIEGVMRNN

Row | Ki [1] [µM] | inhibition [3] [%] | Ki (Plasminogen [4]) [µM] | Ki [9] [µM] | Structure (SMILES) | also measured
1 | 0.66 | < 50 | – | – | COc1ccc2ccnc(N=C(N)N)c2c1 | inhibition (Plasminogen [2]): < 50%
2 | 29 | – | – | – | N=C(N)Nc1ccccn1 | –
3 | 0.3 | – | 4.1 | – | N#Cc1cccc(-c2ccc3c(Cl)cnc(N=C(N)N)c3c2)c1 | –
4 | – | – | – | – | N=C(N)Nc1nccc2cc(Br)ccc12 | inhibition [5]: < 50%
5 | 0.18 | < 50 | – | – | COc1ccc(C#N)cc1-c1ccc2c(Cl)cnc(N=C(N)N)c2c1 | inhibition (Plasminogen [6]): < 50%
6 | – | – | – | – | N=C(N)Nc1ccc2ccccc2n1 | inhibition (Plasminogen [7]): < 50%
7 | – | – | – | – | N=C(N)Nc1ncc(Cl)c2ccc(-c3ccccc3)cc12 | inhibition (Plasminogen [6]): < 50%; inhibition [8]: < 50%
8 | 0.64 | < 50 | 24 | – | CC(O)c1ccc2ccnc(N=C(N)N)c2c1 (configuration not stated) | –
9 | 0.83 | – | – | 128 | NC(N)=Nc1ncc(Cl)c2ccccc12 | –
10 | > 100 | – | 47.5 | 124 | NC(N)=Nc1nccc2c(-c3ccccc3)cccc12 | –
11 | – | – | – | 13 | NC(N)=Nc1nccc2c(OCc3ccccc3)cccc12 | –
12 | 4.8 | – | – | 13 | N=C(N)Nc1nccc2ccc(OCc3ccccc3)cc12 | inhibition (Plasminogen [2]): < 50%
13 | – | < 50 | – | – | N#Cc1cccc(-c2ccc3c(Cl)cnc(NC(=N)N)c3c2)c1 | –
14 | 0.49 | – | – | – | N#Cc1ccc(-c2ccc3c(Cl)cnc(N=C(N)N)c3c2)cc1 | –
15 | – | – | – | 159 | N=C(N)Nc1ncc(Br)c2ccccc12 | inhibition (Plasminogen [7]): < 50%
16 | – | – | – | – | N=C(N)Nc1nccc2c(OCc3ccccc3)cccc12 | inhibition (Plasminogen [2]): < 50%
17 | 0.082 | < 50 | – | – | N=C(N)Nc1ncc(Cl)c2ccc(-c3ccc(C(=O)O)cc3)cc12 | inhibition (Plasminogen [10]): 65%
18 | – | – | 14.5 | 15.5 | COc1ccccc1-c1ccc2c(Cl)cnc(N=C(N)N)c2c1 | –
19 | – | < 50 | – | – | N=C(N)Nc1nccc2ccc(C(=O)O)cc12 | inhibition (Plasminogen [2]): < 50%

Row | Ki [1] [µM] | inhibition [3] [%] | Ki (Plasminogen [4]) [µM] | Ki [9] [µM] | Structure (SMILES) | also measured
20 | – | – | – | – | N=C(N)Nc1ncc(Cl)c2ccccc12 | inhibition (Plasminogen [7]): < 50%
21 | – | – | 131 | – | NC(N)=Nc1nccc2cc(Br)ccc12 | –
22 | 1.3 | < 50 | – | – | N=C(N)Nc1nccc2ccc(CO)cc12 | inhibition (Plasminogen [2]): 55%
23 | – | – | – | – | N=C(N)Nc1cc2ccccc2cn1 | inhibition [5]: < 50%; inhibition (Plasminogen [7]): < 50%
24 | 0.4 | – | 47.5 | 124 | NC(N)=Nc1nccc2ccc(-c3ccccc3)cc12 | –
25 | 0.13 | – | 7.3 | 19 | Cc1ccc(-c2ccc3c(Cl)cnc(N=C(N)N)c3c2)cc1 | –
26 | 1.92 | – | – | 126 | NC(N)=Nc1nccc2ccccc12 | Ki (Plasminogen [11]): 68 µM
27 | 209 | – | – | 367 | NC(N)=Nc1ccc2ccccc2n1 | –
28 | – | – | 12 | – | N=C(N)Nc1nccc2ccc(-c3ccc4c(c3)OCO4)cc12 | inhibition [5]: 55%
29 | – | – | 50.8 | 95.1 | NC(N)=Nc1nccc2ccc(Br)cc12 | –
30 | – | < 50 | – | – | N#Cc1ccc(-c2ccc3c(Cl)cnc(NC(=N)N)c3c2)cc1 | inhibition (Plasminogen [12]): 82%
31 | – | < 50 | – | – | N=C(N)Nc1ncc(Cl)c2ccc(-c3cccc(C(=O)O)c3)cc12 | inhibition (Plasminogen [12]): < 50%
32 | 3.62 | – | – | – | COc1cccc2c(N=C(N)N)nccc12 | inhibition (Plasminogen [13]): < 50%; inhibition [5]: < 50%
33 | – | < 50 | 3 | – | COc1ccc(-c2ccc3c(Cl)cnc(N=C(N)N)c3c2)cc1 | –
34 | – | < 50 | – | – | Cc1cnc(N=C(N)N)c2ccccc12 | inhibition (Plasminogen [2]): < 50%
35 | 0.037 | – | – | – | NC(N)=Nc1ncc(Cl)c2ccc(-c3cccc(C(=O)O)c3)cc12 | –
36 | 0.083 | < 50 | – | – | COc1cccc(-c2ccc3c(Cl)cnc(N=C(N)N)c3c2)c1 | –
37 | 4.93 | – | 238 | 140 | N=C(N)Nc1nccc2c(Br)cccc12 | –

Row | Structure (SMILES) | Ki [1] [µM] | inhibition [3] [%] | Ki (Plasminogen [4]) [µM] | Ki [9] [µM] | also measured
38 | COc1ccc(C(=O)O)cc1-c1ccc2c(Cl)cnc(N=C(N)N)c2c1 | 0.009 | < 50 | 4.75 | – | –
39 | N=C(N)Nc1ncc(Cl)c2ccc(-c3ccc4c(c3)OCO4)cc12 | 0.1 | < 50 | 3.2 | – | –
